The values that follow come from patent publication EP3747280A1, “ANTIMICROBIAL COMBINATION FOR USE IN ANIMAL FEEDS” (Lucta, S.A., priority 2019, dated 2020).

For series [1] the following is noted: in animal feeds, in 20 to 40 days; higher depending on the thermal treatment of feed; cited from earlier work.
The nature of series [2]: Stability test in an animal feed (GC/FID quantification of the active ingredient in fish feed over storage time). In kind it is physicochemical. The source says: The animal feed used was a commercial fish feed having a 52 wt% of crude protein.
Two 200 g samples of the commercial feed were taken for the application of each of the mixtures A and B.
A sterile plastic bag was spread out on a laboratory tray, and 200 g of the commercial feed was deposited on it. With the help of a liquid diffuser bottle, by means of short pulsations, 3 g of the mixture A, previously diluted to 10 wt% in vegetable oil, was applied to the feed.
The bag was closed and shaken, and the feed additive mixture was spread by manual friction in order to distribute it homogeneously all over the feed. Then, the feed containing the mixture A was put in a plastic container. The same process was carried out with mixture B instead of mixture A.
Each of these feed samples (200 g) containing mixture A or mixture B were divided into two and put into sterile cans (100 g of feed in each) for the different thermal treatments at room temperature (RT) and freezer temperature (FT).
Thus, an analytical method by capillary gas chromatography (high separation efficiency) and flame ionization detection (high sensitivity) ([…]) was developed. An Accelerated Solvent Extractor (ASE) extraction was made on the experimental feed samples and residual fats were eliminated from the chromatographic column using backflush.
In a mortar, about 5 g of the experimental feed sample were exactly weighted. 3 g of Celite 545 were added and mixed. The mixture was put in an ASE extraction cell (22 ml) and the sample was extracted with an 80%/20% hexane/acetone mixture at 100 °C and 1500 psi with 5 successive cycles (heating time 5 min, flush 40%, purge 60s) using an ASE equipment.
After extraction, enough anhydrous sodium sulfate was added to the extracts to absorb remaining water and solid residues. All the liquid extract was collected in a 50 ml beaker. The sodium sulfate was cleaned from the extraction tubes with some ml of the 80% /20% hexane/acetone mixture and added to the beaker. It was made up with the 80% /20% hexane/acetone mixture and mixed thoroughly. In a 2 ml glass vial to the GC/FID about 1 ml of the extract was taken. When some precipitate appeared, it was centrifuged at 6000 rpm 5 min.
The same protocol shown above was performed with the experimental feed samples but adding previously 0.2 ml of the 10,000 mg/l standard to 5 g of feed in the ASE extraction cell.
The standards, the experimental feed sample extract and its corresponding spiked sample extract were injected in the GC/FID equipment, minimum by duplicate, using the chromatographic conditions given above. The quantity spiked to the feed sample was at least the same quantity expected in the feed sample. If the area of the spiked sample didn't double at least the area of the corresponding non spiked sample, a high concentration of standard was used to spike the sample.
Results were calculated by standard addition method, taking into account the weight of the feed samples extracted and the standard concentrations.

The next series has as its system Vibrio campbellii. Nature of the series: MIC assay, positive control. The following applies: positive control of the MIC test. In kind it is cell-based. Here is the method: It was tested whether the experimental products (i.e. comparative examples 1 and 2, and examples 1 to 3) could inactivate diverse shrimp or fish and shrimp bacterial pathogens when directly interacting under an in vitro setting.
Bacterial growth was evaluated by visual and optical density.

For `O=CC=Cc1ccccc1` [AC, cinnamaldehyde], the losses in series [1] is on record as 30-50%.

As to `C(=C\C1OCCO1)/c1ccccc1` [EAAC, cinnamaldehyde ethylene glycol acetal], the “Amount of active agent” value in series [2] (feed containing AC and EAAC 50:50, FT, 7 days) turned out to be 269 mg/kg; in series [2] (feed containing AC and EAAC 50:50, FT, 14 days) it was 220 mg/kg; in series [2] (feed containing AC and EAAC 50:50, FT, 21 days), 265 mg/kg; in series [2] (feed containing AC and EAAC 50:50, FT, 28 days), 238 mg/kg; in series [2] (feed containing AC and EAAC 50:50, FT, 35 days) it was 197 mg/kg; in series [2] (feed containing AC and EAAC 50:50, FT, 42 days), 224 mg/kg. Moreover, the “Amount of active agent” value came to 288 mg/kg in series [2] (feed containing AC and EAAC 50:50, RT, 7 days); 236 mg/kg in series [2] (feed containing AC and EAAC 50:50, RT, 14 days); 258 mg/kg in series [2] (feed containing AC and EAAC 50:50, RT, 21 days); 237 mg/kg in series [2] (feed containing AC and EAAC 50:50, RT, 28 days); 191 mg/kg in series [2] (feed containing AC and EAAC 50:50, RT, 35 days); 229 mg/kg in series [2] (feed containing AC and EAAC 50:50, RT, 42 days). Moreover, the “Amount of active agent” value in series [2] (feed containing a mixture of AC and EAAC, molar ratio 50:50, stored at freezer temperature (FT), 0 days) stood at 264 mg/kg; in series [2] (feed containing a mixture of AC and EAAC, molar ratio 50:50, stored at room temperature (RT), 0 days), 264 mg/kg.

As for gentamycin, the “inhibition at the expected concentration” value in the series with Vibrio campbellii was 4 mg/L.
